Experimental data as given in patent publication US6914045B2, “Glycopeptide antibiotics” (Wyeth Holdings Corporation, priority 2001, dated 2005).
In brackets after ≈: the same amount, converted by molar mass.

Columns and labels:
[1] = system: Staphylococcus aureus-SMITH (GC 4543); assay: acute lethal infection in mice; format: in vivo; conditions: acute lethal infection, female CD-1 mice, intraperitoneal challenge, intravenous 30 min. after infection, 7 day survival
Outline: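 Intraperitoneal challenge of female CD-1 mice with a bacterial dose lethal to untreated animals within 24-48 hr; single iv treatment 30 min later, 5 mice per dose level. Survival is scored at day 7 and pooled from three experiments to give the median effective dose.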

Staphylococcus sp. = assay: in vitro antibacterial evaluation, MIC by broth dilution; format: cell-based; conditions: broth dilution, 18 hours at 35° C.; for MIC Staphylococcus aureus (GC 1131): strain GC 1131
Outline: (§1)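 Read-out: the lowest concentration at which the test strain fails to grow. Serial dilutions (64-0.06 μg/mL) in Muller-Hinton II […], 5×10^5 CFU/mL inoculum, NCCLS M7-A2 procedure.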

Streptococcus sp. = assay: as above; format: cell-based; conditions: broth dilution, 18 hours at 35° C.; for MIC Streptococcus pneumoniae (ATCC 6301): strain ATCC 6301; for MIC Streptococcus pneumoniae (GC 1894): strain GC 1894; for MIC Streptococcus pyogenes (GC 4563): strain GC 4563; for MIC Streptococcus agalactiae (GC 4564): strain GC 4564; for MIC Streptococcus pneumoniae (GC 4565): strain GC 4565
Outline: as §1

Enterococcus sp. = assay: as above; format: cell-based; conditions: broth dilution, 18 hours at 35° C.; for MIC Enterococcus faecalis (ATCC 29212): strain ATCC 29212; for MIC Enterococcus faecalis (GC 2242): strain GC 2242; for MIC Enterococcus faecium (GC 2243): strain GC 2243; for MIC Enterococcus faecalis (GC 2691): strain GC 2691; for MIC Enterococcus faecalis (GC 3059): strain GC 3059; for MIC Enterococcus faecalis (GC 4552): strain GC 4552; for MIC Enterococcus faecalis (GC 4553): strain GC 4553; for MIC Enterococcus faecalis (GC 4554): strain GC 4554; for MIC Enterococcus faecium (GC 4556): strain GC 4556; for MIC Enterococcus faecium (GC 4557): strain GC 4557; for MIC Enterococcus avium (GC 4558): strain GC 4558; for MIC Enterococcus faecalis (GC 6189): strain GC 6189
Outline: as §1

Escherichia coli = assay: as above; format: cell-based
Outline: as §1

Cc1ccc(Oc2ccc(C3OCC4OC(OC5C(CO)OC(Oc6ccc(CC7NC(=O)C(C(C)c8ccccc8)NC(=O)CNC(=O)C(CO)NC(=O)C(C(O)C8CNC(=N)N8C8OC(CO)C(O)C(O)C8O)NC(=O)C(C(O)C8CNC(=N)N8)NC7=O)cc6)C(O)C5O)C(O)C(O)C4O3)cc2)cc1 (stereo not drawn) [Example 174, Cyclo[glycyl-β-methylphenylalanyl-O-[4-O-[4,6-O-[4-(4-methylphenoxy)benzylidene]hexopyranosyl]hexopyranosyl]tyrosyl-3-(2-iminoimidazolidin-4-yl)seryl-3-(3-hexopyranosyl-2-iminoimidazolidin-4-yl)serylseryl]]
median effective dose (ED50), Staphylococcus aureus-SMITH (GC 4543) [1]: 0.08 mg/kg | MIC Staphylococcus aureus (GC 1131) (Staphylococcus sp.; inoculum 5×10^5 CFU/mL): 1 µg/mL (≈ 0.671 µM) | MIC Staphylococcus aureus (ATCC 29213) (Staphylococcus sp.; strain ATCC 29213): 2 µg/mL (≈ 1.34 µM) | MIC Staphylococcus aureus (GC 1131) (Staphylococcus sp.): 1 µg/mL (≈ 0.671 µM) | MIC Staphylococcus aureus (GC 3051) (Staphylococcus sp.; strain GC 3051): 2 µg/mL (≈ 1.34 µM) | MIC Staphylococcus aureus (GC 3053) (Staphylococcus sp.; strain GC 3053): 2 µg/mL (≈ 1.34 µM) | MIC Staphylococcus aureus (GC 4541) (Staphylococcus sp.; strain GC 4541): 2 µg/mL (≈ 1.34 µM) | MIC Staphylococcus aureus (GC 4542) (Staphylococcus sp.; strain GC 4542): 2 µg/mL (≈ 1.34 µM) | MIC Staphylococcus aureus (GC 4544) (Staphylococcus sp.; strain GC 4544): 1 µg/mL (≈ 0.671 µM) | MIC Staphylococcus aureus (GC 4545) (Staphylococcus sp.; strain GC 4545): 1 µg/mL (≈ 0.671 µM) | MIC Staphylococcus aureus-SMITH (GC 4543) (Staphylococcus sp.; strain GC 4543): 1 µg/mL (≈ 0.671 µM) | MIC Staphylococcus haemolyticus (GC 4546) (Staphylococcus sp.; strain GC 4546): 2 µg/mL (≈ 1.34 µM) | MIC Coagulase Negative Staphylococcus (GC 4547) (Staphylococcus sp.; strain GC 4547): 2 µg/mL (≈ 1.34 µM) | MIC Coagulase Negative Staphylococcus (GC 4548) (Staphylococcus sp.; strain GC 4548): 0.5 µg/mL (≈ 0.336 µM) | MIC Coagulase Negative Staphylococcus (GC 4549) (Staphylococcus sp.; strain GC 4549): 1 µg/mL (≈ 0.671 µM) | MIC Coagulase Negative Staphylococcus (GC 4551) (Staphylococcus sp.; strain GC 4551): 1 µg/mL (≈ 0.671 µM) | MIC Coagulase Negative Staphylococcus (GC 6257) (Staphylococcus sp.; strain GC 6257): 0.5 µg/mL (≈ 0.336 µM) | MIC Streptococcus pneumoniae (ATCC 6301) (Streptococcus sp.; inoculum 5×10^5 CFU/mL): <0.06 µg/mL | MIC Streptococcus pneumoniae (GC 1894) (Streptococcus sp.; inoculum 5×10^5 CFU/mL): <0.06 µg/mL | MIC Streptococcus pyogenes (GC 4563) (Streptococcus sp.; inoculum 5×10^5 CFU/mL): <0.06 µg/mL | MIC Streptococcus agalactiae (GC 4564) (Streptococcus sp.; inoculum 5×10^5 CFU/mL): <0.06 µg/mL | MIC Streptococcus pneumoniae (GC 4565) (Streptococcus sp.; inoculum 5×10^5 CFU/mL): <0.06 µg/mL | MIC Streptococcus pneumoniae (ATCC 6301) (Streptococcus sp.): <0.06 µg/mL | MIC Streptococcus pneumoniae (GC 1894) (Streptococcus sp.): <0.06 µg/mL | MIC Streptococcus pyogenes (GC 4563) (Streptococcus sp.): <0.06 µg/mL | MIC Streptococcus agalactiae (GC 4564) (Streptococcus sp.): <0.06 µg/mL | MIC Streptococcus pneumoniae (GC 4565) (Streptococcus sp.): <0.06 µg/mL | MIC Enterococcus faecalis (ATCC 29212) (Enterococcus sp.; inoculum 5×10^5 CFU/mL): 2 µg/mL (≈ 1.34 µM) | MIC Enterococcus faecalis (GC 2242) (Enterococcus sp.; inoculum 5×10^5 CFU/mL): 2 µg/mL (≈ 1.34 µM) | MIC Enterococcus faecium (GC 2243) (Enterococcus sp.; inoculum 5×10^5 CFU/mL): 1 µg/mL (≈ 0.671 µM) | MIC Enterococcus faecalis (GC 2691) (Enterococcus sp.; inoculum 5×10^5 CFU/mL): 2 µg/mL (≈ 1.34 µM) | MIC Enterococcus faecalis (GC 3059) (Enterococcus sp.; inoculum 5×10^5 CFU/mL): 2 µg/mL (≈ 1.34 µM) | MIC Enterococcus faecalis (GC 4552) (Enterococcus sp.; inoculum 5×10^5 CFU/mL): 1 µg/mL (≈ 0.671 µM) | MIC Enterococcus faecalis (GC 4553) (Enterococcus sp.; inoculum 5×10^5 CFU/mL): 1 µg/mL (≈ 0.671 µM) | MIC Enterococcus faecalis (GC 4554) (Enterococcus sp.; inoculum 5×10^5 CFU/mL): 1 µg/mL (≈ 0.671 µM) | MIC Enterococcus faecium (GC 4556) (Enterococcus sp.; inoculum 5×10^5 CFU/mL): 1 µg/mL (≈ 0.671 µM) | MIC Enterococcus faecium (GC 4557) (Enterococcus sp.; inoculum 5×10^5 CFU/mL): 2 µg/mL (≈ 1.34 µM) | MIC Enterococcus avium (GC 4558) (Enterococcus sp.; inoculum 5×10^5 CFU/mL): 2 µg/mL (≈ 1.34 µM) | MIC Enterococcus faecalis (GC 6189) (Enterococcus sp.; inoculum 5×10^5 CFU/mL): 2 µg/mL (≈ 1.34 µM) | MIC Enterococcus faecalis (ATCC 29212) (Enterococcus sp.): 2 µg/mL (≈ 1.34 µM) | MIC Enterococcus faecalis (GC 2242) (Enterococcus sp.): 2 µg/mL (≈ 1.34 µM) | MIC Enterococcus faecium (GC 2243) (Enterococcus sp.): 1 µg/mL (≈ 0.671 µM) | MIC Enterococcus faecalis (GC 2691) (Enterococcus sp.): 2 µg/mL (≈ 1.34 µM) | MIC Enterococcus faecalis (GC 3059) (Enterococcus sp.): 2 µg/mL (≈ 1.34 µM) | MIC Enterococcus faecalis (GC 4552) (Enterococcus sp.): 1 µg/mL (≈ 0.671 µM) | MIC Enterococcus faecalis (GC 4553) (Enterococcus sp.): 1 µg/mL (≈ 0.671 µM) | MIC Enterococcus faecalis (GC 4554) (Enterococcus sp.): 1 µg/mL (≈ 0.671 µM) | MIC Enterococcus faecium (GC 4556) (Enterococcus sp.): 1 µg/mL (≈ 0.671 µM) | MIC Enterococcus faecium (GC 4557) (Enterococcus sp.): 2 µg/mL (≈ 1.34 µM) | MIC Enterococcus avium (GC 4558) (Enterococcus sp.): 2 µg/mL (≈ 1.34 µM) | MIC Enterococcus faecalis (GC 6189) (Enterococcus sp.): 2 µg/mL (≈ 1.34 µM) | MIC Escherichia coli (ATCC 25922) (Escherichia coli; strain ATCC 25922, 18 hours at 35° C.): >64 µg/mL | MIC Escherichia coli (GC 4559) (Escherichia coli; strain GC 4559, 18 hours at 35° C.): >64 µg/mL | MIC Escherichia coli (GC 4560) (Escherichia coli; strain GC 4560, 18 hours at 35° C.): 4 µg/mL (≈ 2.69 µM)
